Measurements: patent publication US10105384B2, “Nucleic acids targeting TCTP for use in the treatment of chemo- or hormone-resistant cancers” (INSTITUT NATIONAL DE LA SANTE ET DE LA RECHERCHE MEDICALE …, priority 2010, dated 2018)

System: TCTP
Assay: ASO sequences screening: TCTP expression by western blot and/or qRT-PCR
Format: cell-based, human
Conditions: WB and/or qRT-PCR, PC-3 cells overexpressing TCTP
Method: Western Blot analysis was performed as described previously (Rocchi et al., 2004, Cancer Res. 64:6595-602) with 1:5000 rabbit anti-Hsp27 polyclonal antibody (Assay Designs, Villeurbanne, France), 1:2000 rabbit TCTP polyclonal antibody (Abcam Inc., Cambridge, UK), 1:250 rabbit anti-MSL1v1 polyclonal antibody (Abcam Inc.), 1:500 mouse anti-ubiquitin monoclonal antibody (Santa Cruz Biotechnology Inc., Heidelberg, Germany) or 1:1000 rabbit anti-caspase-3 polyclonal antibody (Cell Signalling Technology Inc., Danvers, USA). Loading levels were normalized using 1:5000 rabbit anti-glyceraldehyde-3-phosphate dehydrogenase polyclonal (Abcam Inc.) or 1:2500 mouse anti-vinculine monoclonal antibodies (Sigma Chemical Co., St Louis, Mo., USA).
The quantitative reverse transcription polymerase chain reaction (qRT-PCR) analysis was done on a LightCycler detection system (Roche Applied Science, Meylan, France). Expression levels of 18S subunit of the ribosome gene were used as an internal control. First strand cDNA was synthesized from 1 μg of total RNA using random hexamers and expanded by reverse transcriptase according to the manufacturer's instructions (ImProm-II Reverse Transcription System, Promega, Charbonniéres-les-Bains, France), subsequently diluted 1:10 with water, and stored at −20° C. until use. TCTP and 18S polymerase chain reaction (PCR) products were detected by quantitative real time PCR (qRT-PCR) using the SYBR Premix Ex Taq (Takara Bio Inc, St Germain en Laye, France) following the manufacturer's instructions. Five microliters of diluted cDNA template were mixed with 10 μl SYBR Premix Ex Taq (including Taq polymerase, reaction buffer, MgCl2, SYBR green I dye, and deoxynucleotide triphosphate mix) and 0.4 μM forward and reverse primers, in a final volume of 20 μl. The following primers were used: TCTP forward 5′-[…]-3′ (SEQ ID NO: 8) and TCTP reverse 5′-[…]-3′; (SEQ ID NO: 9); 18S forward 5′-[…]-3′ (SEQ ID NO: 10) and 18S reverse 5′-[…]-3′ (SEQ ID NO: 11). After an initial Taq activation for 10 seconds at 95° C., Light Cycler PCR was done using 55 cycles with the following cycling conditions: 95° C. for 5 seconds, 58° C. for 7 seconds, and 72° C. for 14 seconds. Each sample was analyzed in duplicate and the experiment was repeated three times. Results were analyzed using RealQuant data analysis software (Roche, Neuilly-sur-seine, France). The results analysis was done with the 2(-Delta Delta C(T)) Method (Livak K J. et al., 2001; Methods. 25:402-8).
In order to find a sequence ASO having an inhibiting effect on TCTP expression, 30 ASO sequences have been designed 26 of which are shown in table 1. Said 30 sequences cover the TCTP mRNA (accession number NM_003295). Using BLAST program, the specificity of said sequences has been studied. Among said 30 sequences, only 15 sequences have been identified as being specific for TCPT mRNA sequence (see table 1). The effect of said ASO sequences on TCTP expression was tested by western blot analysis (WB) and/or by quantitative reverse transcription polymerase chain reaction (qRT-PCR) on PC-3 cells overexpressing TCTP. WB and qRT-PCR were performed as exposed in example 1.

Compound	ability to inhibit TCTP expression
ACCAGTGATTACTGTGCTTT (listed as DNA, chemistry not fully specified) [ASO13]	strong ability to inhibit TCTP expression
AGAAAATCATATATGGGGTC (listed as DNA, chemistry not fully specified) [ASO24]	strong ability to inhibit TCTP expression
ATGTAATCTTTGATGTACTT (listed as DNA, chemistry not fully specified) [ASO17]	strong ability to inhibit TCTP expression
CTTGTAGGCTTCTTTTGTGA (listed as DNA, chemistry not fully specified) [ASO16]	strong ability to inhibit TCTP expression
GAAATTAGCAAGGATGTGCT (listed as DNA, chemistry not fully specified) [ASO30]	strong ability to inhibit TCTP expression
GTCATAAAAGGTTTTACTCT (listed as DNA, chemistry not fully specified) [ASO28]	strong ability to inhibit TCTP expression
GTTTCCCTTTGATTGATTTC (listed as DNA, chemistry not fully specified) [ASO18]	strong ability to inhibit TCTP expression
TAATCATGATGGCGACTGAA (listed as DNA, chemistry not fully specified) [ASO4]	strong ability to inhibit TCTP expression
TTAACATTTCTCCATTTCTA (listed as DNA, chemistry not fully specified) [ASO26]	strong ability to inhibit TCTP expression
TTCTGGTCTCTGTTCTTCAA (listed as DNA, chemistry not fully specified) [ASO19]	strong ability to inhibit TCTP expression

System: PC-3 cells
Assay: Flow cytometry of propidium iodide-stained nuclei (apoptosis, cell cycle), PC-3 cells
Format: cell-based, human
Conditions: PC-3, docetaxel treatment
Method: Flow cytometry of propidium iodide-stained nuclei was performed as described previously (Rocchi et al., 2004, Cancer Res. 64:6595-602). In brief, PC-3 cells were plated at the density of 10^6 cells into 10 cm dishes in DMEM supplemented with 10% FCS. To assess the effect of TCTP inhibition on apoptosis and cell cycle, cells were treated the day after seeding with 5 nM of siRNA TCTP or control and 100 nM of ASO TCTP or scrambled control for 48 h. Cells were then treated with 50 nM of docetaxel. After 24 h, the cells were analyzed for relative DNA content on a dual laser flow cytometer (FACSCalibur, Becton Dickinson Biosciences, Le Pont de Claix, France). Each assay was performed in triplicate.
Flow cytometry was used to quantify the percentage of cells in each cell cycle phase three days after the siRNA treatment. After the treatment of PC-3 cells with 5 nM TCTP siRNA for 1 day, the fraction of cells undergoing apoptosis (sub-G1/G0 fraction) was 25% higher after treatment with 5 nM TCTP siRNA compared with scrambled control siRNA (**, P≤0.01; FIG. 6, upper panel). Using TCTP ASO treatment alone, we found an increase of 75% in sub-G0G1 fraction (***, P≤0.001; FIG. 6, middle and bottom panel), enhanced by the 50 nM docetaxel treatment (90% in sub-G0-G1 fraction, ***, P≤0.001). […] The fraction of PC-3 in S phase was 20 to 40% lower after TCTP siRNA or ASO treatments respectively compared to the scrambled controls (FIG. 6). […] The rate of apoptotic PC-3 cells after TCTP silencing with different ASO concentrations was explored with the Invitrogen countess (FIG. 6 and FIG. 7A). PC-3 cells were treated with 70, 100 or 200 nM of TCTP ASO or control. Cells were harvested 3 days after treatment and […] of trypan blue was added before analysis with Invitrogen Countess. […] Moreover, TCTP has been reported to interact with caspase-3, thereby inhibiting caspase-3 activation (Gnanasekar et al., 2009, Int J Oncol. 34:1241-6). In order to investigate the effect of TCTP silencing on caspase-3 cleavage and activity, PC-3 cells were treated daily with 100 nM TCTP or scrambled ASO for 2 days. Cells were harvested 2 days after and proteins were extracted for western blotting with a caspase-3 antibody that recognizes both full-length and cleaved caspase-3.
PC3 cells were transfected with a TCTP siRNA of SEQ ID NO: 3. Cell proliferation and apoptosis were studied using respectively MTT (3-(4,5-dimethylthiazol-2-yl)-2,5-diphenyl tetrazolium bromure) assay and flow cytometry.
PC3 cells were transfected with a TCTP ASO of SEQ ID NO: 2. Cell proliferation and apoptosis were studied using respectively MTT assay and flow cytometry.

Compound	fraction of cells in S phase	fraction of cells undergoing apoptosis
CC(=O)O[C@@]12CO[C@@H]1C[C@H](O)[C@@]1(C)C(=O)[C@H](O)C3=C(C)[C@@H](OC(=O)[C@H](O)[C@@H](NC(=O)OC(C)(C)C)c4ccccc4)C[C@@](O)([C@@H](OC(=O)c4ccccc4)[C@H]21)C3(C)C [docetaxel, reference compound]	without changing the fraction of cells in S phase	increased the fraction of cells undergoing apoptosis

System: PC-3 tumors
Assay: PC-3 tumor growth in vivo in athymic nude mice
Conditions: PC3 xenografted nude mice, 10th week of treatment
Method: Approximately 3.10^6 PC-3 cells and 10.10^6 LNCaP cells were inoculated subcutaneously with 0.1 mL of Dulbecco's Modified Eagle's Medium (Invitrogen) supplemented with 10% FCS for PC-3 or with 0.1 mL of Matrigel (BD Biosciences Discovery Labware) for LNCaP in the flank region of 4-week-old male athymic nude mice (Charles River, L'Arbresle, France) via a 23-gauge needle. When PC-3 tumors reached 50 mm^3, usually 3 to 4 weeks after injection, mice were randomly selected for treatment with TCTP ASO alone, scrambled ASO alone, TCTP ASO plus docetaxel or scrambled ASO plus docetaxel. Mice bearing LNCaP tumors between 200 and 300 mm^3 in volume were castrated via scrotal approach and randomly assigned to a treatment arm. Mice were treated beginning 1 week after castration with TCTP ASO or control ASO alone and serum PSA measurements were done weekly. For both experiments, each experimental group consisted in 10 mice and the tumor volume measurements were performed once weekly and calculated by the formula length×width×depth×0.5236 (Gleave et al., 1999, Clin Cancer Res 5:2891-8). After randomization, 10 mg/kg TCTP or scrambled ASO was injected intraperitoneally (i.p) once daily for 60 days for ASO monotherapy groups and 90 days for the ASO plus docetaxel groups. A total of 35 mg/kg docetaxel was administrated i.p. three times per week from days 7 to 14. Tumor volume measurements were performed once weekly and calculated by the formula length×width×depth×0.5236 (20). Data points were expressed as average tumor volume levels +/−standard error (SE). All animal procedures were performed in accordance with protocols approved by French laws and the European directives and with appropriate institutional certification.
We next evaluated the effects of TCTP ASO treatment on the growth of PC-3 tumors in vivo (FIG. 8). Male nude mice bearing PC-3 tumors (50 mm^3) were randomly selected for TCTP ASO versus scrambled ASO and 10 mg/kg ASO were administrated once daily by i.p. injection for […]. From days 7 to 14, 30 mg/kg of docetaxel was administrated i.p. 3 days in the week. Mean tumor volume was similar in all groups before therapy.
TCTP inhibition was evaluated in nude mice xenografted with the PC3 CRPC cell line. The animals were treated in an everyday basis and for a period of two months by peritoneal injection of ASO or control TCTP once their tumor volume was 200-300 mm^3. In order to evaluate the additive anticancer activity of ASO TCTP, mice were treated with docetaxel (33 mg/kg) by peritoneal injection three times per week for one week prior to ASO or control TCTP injections. For all experiments, the average tumor volume was measured once a week.

Compound	tumor volume
5′-CGTGTAGGTACGGCAGATC-3′ (listed as DNA, chemistry not given here) [ASO scrambled, reference compound]	over 1500 mm^3
